From patent US11596716B2, “Compounds and matrices for use in bone growth and repair” (Human BioMolecular Research Institute, priority 2013, dated 2023)

Tested on: C2C12 cells
Experiment: Alkaline Phosphatase (ALP) functional activity assay in C2C12 cells
Assay type: cell-based, Mouse
Details: normalized to DMSO treatment; for activation at 0.5 µM: Mus musculus, C2C12, 144 h
Procedure: Alkaline Phosphatase (ALP) Functional Activity Assay: C2C12 cells were plated into 12-well plates with 7,000 cells/well in 1 mL growth media. […] 1, 2, 3, or 4 in 0.1% DMSO was added (500 nM). Half the media was exchanged with fresh media containing compound every 48 hrs. After 6 days, media was removed, ALP Lysis Buffer (10 mM Tris-HCl pH 8.0, 1 mM MgCl2, and 1% Triton X100) added, and cell lysate obtained (10 min incubation at RT) by centrifugation (5 min at 3500× g at 4° C.). Para-nitrophenol phosphate (pNPP) (2 mg/mL) was incubated with 50 μl cell lysate (10 mins, 37° C.). After addition of […] 0.02 N NaOH, absorbance OD405 was measured. Protein concentration was determined by Bradford protein assay. Results of ALP activity were plotted as nM pNP hydrolyzed/mg total protein. After normalizing control samples (i.e., DMSO-treated samples) to one-fold, the fold-changes were plotted to indicate the relative ALP activity. […] This protocol was applied to hMSC and E15 cells as well.

[1] = compounds of Formula II or IV, absence of matrix
[2] = compounds of Formula II or IV, presence of calcium phosphate matrix
[3] = compounds of Formula VI, absence of matrix
[4] = compounds of Formula VI, presence of calcium phosphate matrix

`Cc1ccc(N[C@@H]2C[C@H](C)Nc3ccc(C)cc32)cc1` (relative stereo) [Compound 5, cis-2,6-dimethyl-N-(p-methylphenyl)-1,2,3,4-tetrahydroquinolin-4-amine] was tested, and the activation at 0.5 µM [1] was 5 to 50% and the activation at 0.5 µM [2] was 5 to 50%.

In the case of `Cc1ccc(N[C@H]2C[C@H](C)Nc3ccc(C)cc32)cc1` (relative stereo) [Compound 6, trans-2,6-dimethyl-N-(p-methylphenyl)-1,2,3,4-tetrahydroquinolin-4-amine], the activation at 0.5 µM [1] is reported as 50 to 100% and the activation at 0.5 µM [2] is reported as under 5%.

`C[C@H]1C[C@@H](Nc2ccccc2)c2ccccc2N1` (relative stereo) [Compound 7, cis-2-methyl-N-phenyl-1,2,3,4-tetrahydroquinolin-4-amine] gave an activation at 0.5 µM [1] of 5 to 50% and an activation at 0.5 µM [2] of 5 to 50%.

`C[C@H]1C[C@H](Nc2ccccc2)c2ccccc2N1` (relative stereo) [Compound 8, trans-2-methyl-N-phenyl-1,2,3,4-tetrahydroquinolin-4-amine] gave an activation at 0.5 µM [1] of 5 to 50% and an activation at 0.5 µM [2] of 5 to 50%.

`COc1ccc(N[C@@H]2C[C@H](C)Nc3ccc(OC)cc32)cc1` (relative stereo) [Compound 11, cis-2-methyl-6-methoxy-N-(p-methoxyphenyl)-1,2,3,4-tetrahydroquinolin-4-amine] was tested, and the activation at 0.5 µM [1] was under 5% and the activation at 0.5 µM [2] was 50 to 100%.

For `COc1ccc(N[C@H]2C[C@H](C)Nc3ccc(OC)cc32)cc1` (relative stereo) [Compound 12, trans-2-methyl-6-methoxy-N-(p-methoxyphenyl)-1,2,3,4-tetrahydroquinolin-4-amine], the activation at 0.5 µM [1] was over 100% and the activation at 0.5 µM [2] was 5 to 50%.

`CC(=O)N1c2ccc(C)cc2[C@@H](Nc2ccc(C)cc2)C[C@@H]1C` (relative stereo) [Compound 13, trans-1-acetyl-2,6-dimethyl-N-(p-methylphenyl)-1,2,3,4-tetrahydroquinolin-4-amine] was tested, and the activation at 0.5 µM [1] was over 100% and the activation at 0.5 µM [2] was under 5%.

Work on `Cc1ccc(N[C@H]2C[C@H](C)N(C(=O)C(C)C)c3ccc(C)cc32)cc1` (relative stereo) [Compound 15, trans-1-(2-propylcarbonyl)-2,6-dimethyl-4-(4-methylphenylamino)-1,2,3,4-tetrahydroquinoline] yielded an activation at 0.5 µM [1] of under 5% and an activation at 0.5 µM [2] of 50 to 100%.

For `Cc1ccc(N[C@@H]2C[C@H](C)N(C(=O)c3ccccc3)c3ccc(C)cc32)cc1` (relative stereo) [Compound 18, cis-1-benzoyl-2,6-dimethyl-N-(p-methylphenyl)-1,2,3,4-tetrahydroquinolin-4-amine], the activation at 0.5 µM [1] was over 100% and the activation at 0.5 µM [2] was under 5%.

`Cc1ccc(N[C@H]2C[C@H](C)N(C(=O)c3ccccc3)c3ccc(C)cc32)cc1` (relative stereo) [Compound 19, trans-1-benzoyl-2,6-dimethyl-N-(p-methylphenyl)-1,2,3,4-tetrahydroquinolin-4-amine] gave an activation at 0.5 µM [1] of under 5% and an activation at 0.5 µM [2] of under 5%.

In the case of `CC(=O)N1c2ccc(F)cc2[C@H](Nc2ccc(F)cc2)C[C@@H]1C` (relative stereo) [Compound 21, cis-1-acetyl-2-methyl-6-fluoro-N-(p-fluorophenyl)-1,2,3,4-tetrahydroquinolin-4-amine], the activation at 0.5 µM [1] is reported as 5 to 50% and the activation at 0.5 µM [2] is reported as 5 to 50%.

`CC(=O)N1c2ccc(F)cc2[C@@H](Nc2ccc(F)cc2)C[C@@H]1C` (relative stereo) [Compound 22, trans-1-acetyl-2-methyl-6-fluoro-N-(p-fluorophenyl)-1,2,3,4-tetrahydroquinolin-4-amine] gave an activation at 0.5 µM [1] of 5 to 50% and an activation at 0.5 µM [2] of under 5%.

`C[C@H]1C[C@@H](Nc2ccc(F)cc2)c2cc(F)ccc2N1C(=O)c1ccccc1` (relative stereo) [Compound 23, cis-1-benzoyl-2-methyl-6-fluoro-N-(p-fluorophenyl)-1,2,3,4-tetrahydroquinolin-4-amine] showed an activation at 0.5 µM [1] of 50 to 100% and an activation at 0.5 µM [2] of 5 to 50%.

In the case of `C[C@H]1C[C@H](Nc2ccc(F)cc2)c2cc(F)ccc2N1C(=O)c1ccccc1` (relative stereo) [Compound 24, trans-1-benzoyl-2-methyl-6-fluoro-N-(p-fluorophenyl)-1,2,3,4-tetrahydroquinolin-4-amine], the activation at 0.5 µM [1] is reported as 50 to 100% and the activation at 0.5 µM [2] is reported as under 5%.

For `COc1ccc(C(=O)N2c3ccc(F)cc3[C@H](Nc3ccc(F)cc3)C[C@@H]2C)cc1` (relative stereo) [Compound 25, cis-1-(p-methoxybenzoyl)-2-methyl-6-fluoro-N-(p-fluorophenyl)-1,2,3,4-tetrahydroquinolin-4-amine], the activation at 0.5 µM [1] was 5 to 50% and the activation at 0.5 µM [2] was 5 to 50%.

`COc1ccc(C(=O)N2c3ccc(F)cc3[C@@H](Nc3ccc(F)cc3)C[C@@H]2C)cc1` (relative stereo) [Compound 26, trans-1-(p-methoxybenzoyl)-2-methyl-6-fluoro-N-(p-fluorophenyl)-1,2,3,4-tetrahydroquinolin-4-amine] gave an activation at 0.5 µM [1] of under 5% and an activation at 0.5 µM [2] of 50 to 100%.

For `CC(=O)N1c2ccc(C)cc2[C@@H](N(C(C)=O)c2ccc(C)cc2)C[C@@H]1C` (relative stereo) [Compound 27, trans-1-acetyl-2,6-dimethyl-N-(p-methylphenyl)-N-acetyl-1,2,3,4-tetrahydroquinolin-4-amine], the activation at 0.5 µM [1] was 5 to 50% and the activation at 0.5 µM [2] was 5 to 50%.

For `Cc1ccc(N(C(=O)c2ccccc2)[C@H]2C[C@H](C)N(C(=O)c3ccccc3)c3ccc(C)cc32)cc1` (relative stereo) [Compound 28, trans-1-benzoyl-2,6-dimethyl-N-(p-methylphenyl)-N-benzoyl-1,2,3,4-tetrahydroquinolin-4-amine], the activation at 0.5 µM [1] was under 5% and the activation at 0.5 µM [2] was under 5%.

Work on `C[C@H]1C[C@H](N(C(=O)c2ccccc2)c2ccc(F)cc2)c2cc(F)ccc2N1C(=O)c1ccccc1` (relative stereo) [Compound 29, trans-1-benzoyl-2-methyl-6-fluoro-N-(p-fluorophenyl)-N-benzoyl-1,2,3,4-tetrahydroquinolin-4-amine] yielded an activation at 0.5 µM [1] of over 100% and an activation at 0.5 µM [2] of under 5%.

With `COc1ccc(C(=O)N2c3ccc(F)cc3[C@@H](N(C(=O)c3ccc(OC)cc3)c3ccc(F)cc3)C[C@@H]2C)cc1` (relative stereo) [Compound 30, trans-1-(p-methoxybenzoyl)-2-methyl-6-fluoro-N-(p-fluorophenyl)-N-(p-methoxybenzoyl)-1,2,3,4-tetrahydroquinolin-4-amine] the activation at 0.5 µM [1] was under 5% and the activation at 0.5 µM [2] was 5 to 50%.

With `COc1cc(N(C)C)ccc1C=CC(=O)C=C(O)C=Cc1ccc(N(C)C)cc1OC` [Compound 39, 1,7-Bis(4-dimethylamino-2-methoxyphenyl). 5-hydroxy-hepta-1,4,6-trien-3-one] the “ALP activity −matrix” value [3] was “+++ (>100%)” and the “ALP activity +matrix” value [4] was “− (<5%)”.

For `CN(C)c1ccc(C=CC(=O)C=C(O)C=Cc2ccc(N(C)C)cc2)cc1` [Compound 47, 1,7-Bis-(4-dimethylaminophenyl)-5-hydroxy-hepta-1,4,6-trien-3-one], the activation at 0.5 µM [3] was over 100% and the activation at 0.5 µM [4] was under 5%.

`COc1ccc(C=CC(=O)C=C(O)C=Cc2ccc(OC)c(O)c2)cc1O` [Compound 48, 5-Hydroxy-1,7-bis-(3-hydroxy-4-methoxyphenyl)-hepta-1,4,6-trien-3-one] was tested, and the activation at 0.5 µM [3] was over 100% and the activation at 0.5 µM [4] was under 5%.

`COc1cc(O)ccc1C=CC(=O)C=C(O)C=Cc1ccc(O)cc1OC` [Compound 49, 5-Hydroxy-1,7-bis-(4-hydroxy-2-methoxyphenyl)-hepta-1,4,6-trien-3-one] was tested, and the activation at 0.5 µM [3] was 50 to 100% and the activation at 0.5 µM [4] was under 5%.
